Measured values as given in patent US12162888B2, “Carboxamides as ubiquitin-specific protease inhibitors” (Valo Early Discovery, Inc., priority 2018, dated 2024).

Target: T1, USP25 (USP25-His6, Boston Biochem E-546) (Homo sapiens, UniProt Q9UHP3)
T1 construct: His6 (C); purchased Boston Biochem E-546
T1 sequence (Q9UHP3 1-1055): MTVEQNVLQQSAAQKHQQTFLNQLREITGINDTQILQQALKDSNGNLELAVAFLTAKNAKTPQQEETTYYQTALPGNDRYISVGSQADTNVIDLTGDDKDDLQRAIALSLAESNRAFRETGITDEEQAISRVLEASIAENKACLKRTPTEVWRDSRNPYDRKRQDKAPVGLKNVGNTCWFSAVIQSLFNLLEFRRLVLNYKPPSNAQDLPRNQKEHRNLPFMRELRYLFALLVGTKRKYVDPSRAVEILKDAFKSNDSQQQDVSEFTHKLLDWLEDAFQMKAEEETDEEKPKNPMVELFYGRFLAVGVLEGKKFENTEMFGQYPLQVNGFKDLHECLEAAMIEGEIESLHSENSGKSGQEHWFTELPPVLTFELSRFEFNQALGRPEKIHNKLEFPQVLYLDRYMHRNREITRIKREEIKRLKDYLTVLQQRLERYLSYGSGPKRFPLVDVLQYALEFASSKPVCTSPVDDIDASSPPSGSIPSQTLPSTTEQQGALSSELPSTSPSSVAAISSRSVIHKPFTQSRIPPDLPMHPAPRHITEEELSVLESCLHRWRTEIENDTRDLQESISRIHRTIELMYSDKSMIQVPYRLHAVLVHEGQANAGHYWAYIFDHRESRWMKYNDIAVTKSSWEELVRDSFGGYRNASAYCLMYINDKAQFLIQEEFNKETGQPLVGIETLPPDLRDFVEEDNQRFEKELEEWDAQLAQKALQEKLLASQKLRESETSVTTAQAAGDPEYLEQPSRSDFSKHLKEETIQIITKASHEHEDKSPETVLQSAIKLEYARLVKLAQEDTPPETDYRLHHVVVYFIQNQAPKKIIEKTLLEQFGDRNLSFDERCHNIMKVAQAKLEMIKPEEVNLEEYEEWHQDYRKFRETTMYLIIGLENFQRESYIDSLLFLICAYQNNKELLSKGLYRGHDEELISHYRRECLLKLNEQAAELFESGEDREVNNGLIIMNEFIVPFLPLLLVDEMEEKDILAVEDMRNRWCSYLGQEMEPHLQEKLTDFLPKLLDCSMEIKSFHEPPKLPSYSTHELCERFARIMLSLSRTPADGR
Assay: Ubiquitin-Rhodamine 110 Assay for USP25 Activity, Example A-3
Assay type: biochemical
Details: Ubiquitin-Rhodamine 110 assay, Example A-3; read-out: USP25 A-3 IC50 range
Description: Example A-3: Biochemical Assay: Ubiquitin-Rhodamine 110 Assay for USP25 Activity
The assay was performed in a final volume of 9 μL in assay buffer containing 20 mM Tris-HCl (pH 8.0, (1M Tris-HCl, pH 8.0 solution; Corning 46-031-CM)), 3 mM BME (2-Mercaptoethanol; Sigma 63689-25ML-F), 0.03% BGG (0.22 μM filtered, Sigma, G7516-25G), and 0.01% Triton X-100 (Sigma, T9284-10L). Nanoliter quantities of 10-point, 3-fold serial dilution in DMSO was pre-dispensed into 1536 assay plates (Corning, #3724BC) for a final test concentration of 25 μM to 1.3 nM, top to lowest dose, respectively. Enzyme USP25, construct USP25-His6, (Boston Biochem E-546). Concentration and incubation times were optimized for the maximal signal-to-background while maintaining initial velocity conditions at a fixed substrate concentration. The final concentration of the enzyme in the assay was […]. Final substrate (Ub-Rh110; Ubiquitin-Rhodamine 110, R&D Systems #U-555) concentration was 25 nM with [Ub-Rh110]<<Km. 3 μL of 2× enzyme was added to assay plates (pre-stamped with compound) preincubated with […] for 30 minutes and then 3 μL of 2× Ub-Rh110 was added to assay plates. Plates were incubated for 45 minutes at room temperature before addition of 3 μL of stop solution (final concentration of 10 mM citric acid (Sigma, 251275-500G)). Fluorescence was read on the Envision (Excitation at 485 nm and Emission at 535 nm; Perkin Elmer) or on the PheraSTAR (Excitation at 485 nm and Emission at 535 nm; BMG Labtech).
For assay formats Example A-1(a), A-1(b), and A-2, data were reported as percent inhibition compared with control wells based on the following equation: % inh=1−((FLU−AveLow)/(AveHigh−AveLow)) where FLU=measured Fluorescence, AveLow=average Fluorescence of no enzyme control (n=16), and AveHighh=average Fluorescence of DMSO control (n=16). IC50 values were determined by curve fitting of the standard 4 parameter logistic fitting algorithm included in the Activity Base software package: IDBS XE Designer Model 205. Data is fitted using the Levenburg Marquardt algorithm.

Compound | IC50 [nM]
COC[C@]1(N)CCN(c2ccc3c(n2)CC[C@H](NC(=O)c2sc4nc(C)ccc4c2N)C3)C1 [Example 389, 3-amino-N-[(6S)-2-[(3S)-3-amino-3-(methoxymethyl)pyrrolidin-1-yl]-5,6,7,8-tetrahydroquinolin-6-yl]-6-methylthieno[2,3-b]pyridine-2-carboxamide] | 200 to 2000
CO[C@@]1(C)CN(c2ccc3c(n2)CC[C@H](NC(=O)c2sc4nc(C)ccc4c2N)C3)C[C@H]1N [Example 428, 3-amino-N-[(6S)-2-[(3S,4R)-4-amino-3-methoxy-3-methylpyrrolidin-1-yl]-5,6,7,8-tetrahydroquinolin-6-yl]-6-methylthieno[2,3-b]pyridine-2-carboxamide] | 200 to 2000
COC[C@@H]1[C@@H](N)CCN1c1ccc2c(n1)CC[C@H](NC(=O)c1sc3nc(C)ccc3c1N)C2 [Example 420, 3-amino-N-[(6S)-2-[(2S,3S)-3-amino-2-(methoxymethyl)pyrrolidin-1-yl]-5,6,7,8-tetrahydroquinolin-6-yl]-6-methylthieno[2,3-b]pyridine-2-carboxamide] | 50 to 200
Cc1ccc2c(N)c(C(=O)N[C@H]3CCc4nc(N5C[C@@H]6CCN[C@H](C5)C6(F)F)ccc4C3)sc2n1 [Example 367, 3-amino-N-[(6S)-2-[(1R,5S)-9,9-difluoro-2,7-diazabicyclo[3.3.1]nonan-7-yl]-5,6,7,8-tetrahydroquinolin-6-yl]-6-methylthieno[2,3-b]pyridine-2-carboxamide] | 50 to 200
Cc1ccc2c(N)c(C(=O)N[C@H]3CCc4nc(N5CC[C@]6(C5)OCC[C@@H]6N)ccc4C3)sc2n1 [Example 406, 3-amino-N-[(6S)-2-[(4S,5R)-4-amino-1-oxa-7-azaspiro[4.4]nonan-7-yl]-5,6,7,8-tetrahydroquinolin-6-yl]-6-methylthieno[2,3-b]pyridine-2-carboxamide] | > 2000
Cc1ccc2c(N)c(C(=O)N[C@H]3CCc4nc(N5CC[C@]6(C5)OCC[C@H]6N)ccc4C3)sc2n1 [Example 408, 3-amino-N-[(6S)-2-[(4R,5R)-4-amino-1-oxa-7-azaspiro[4.4]nonan-7-yl]-5,6,7,8-tetrahydroquinolin-6-yl]-6-methylthieno[2,3-b]pyridine-2-carboxamide] | > 2000
Cc1ccc2c(N)c(C(=O)N[C@H]3CCc4nc(N5C[C@H]6COC[C@@]6(N)C5)ccc4C3)sc2n1 [Example 395, N-[(6S)-2-[(3aS,6aR)-3a-amino-hexahydro-1H-furo[3,4-c]pyrrol-5-yl]-5,6,7,8-tetrahydroquinolin-6-yl]-3-amino-6-methylthieno[2,3-b]pyridine-2-carboxamide] | 200 to 2000
Cc1ccc2c(N)c(C(=O)N[C@H]3CCc4nc(N5C[C@H](N)[C@]6(CCOC6)C5)ccc4C3)sc2n1 [Example 430, 3-amino-N-[(6S)-2-[(5S,9R)-9-amino-2-oxa-7-azaspiro[4.4]nonan-7-yl]-5,6,7,8-tetrahydroquinolin-6-yl]-6-methylthieno[2,3-b]pyridine-2-carboxamide] | > 2000
CCn1ccc2cc(C(=O)N[C@H]3CCc4nc(N5C[C@H](NC)[C@@H](OC)C5)ccc4C3)cnc21 [Example 402, 1-ethyl-N-[(6S)-2-[(3S,4S)-3-methoxy-4-(methylamino)pyrrolidin-1-yl]-5,6,7,8-tetrahydroquinolin-6-yl]-1H-pyrrolo[2,3-b]pyridine-5-carboxamide] | > 2000
Cc1ccc2c(N)c(C(=O)N[C@H]3CCc4nc(N5C[C@H]6CCN[C@@H](C5)C6(F)F)ccc4C3)sc2n1 [Example 368, 3-amino-N-[(6S)-2-[(1S,5R)-9,9-difluoro-2,7-diazabicyclo[3.3.1]nonan-7-yl]-5,6,7,8-tetrahydroquinolin-6-yl]-6-methylthieno[2,3-b]pyridine-2-carboxamide] | 50 to 200
CO[C@]12CCN[C@@H]1CN(c1ccc3c(n1)CC[C@H](NC(=O)c1sc4nc(C)ccc4c1N)C3)C2 [Example 435, N-[(6S)-2-[(3aS,6aR)-3a-methoxy-octahydropyrrolo[2,3-c]pyrrol-5-yl]-5,6,7,8-tetrahydroquinolin-6-yl]-3-amino-6-methylthieno[2,3-b]pyridine-2-carboxamide] | 200 to 2000
CC(=O)N[C@@H]1CN(c2ccc3c(n2)CC[C@H](NC(=O)c2sc4nc(C)ccc4c2N)C3)C[C@H]1C(F)F [Example 372, 3-amino-N-[(6S)-2-[(3R,4S)-3-(difluoromethyl)-4-acetamidopyrrolidin-1-yl]-5,6,7,8-tetrahydroquinolin-6-yl]-6-methylthieno[2,3-b]pyridine-2-carboxamide] | > 2000
Cc1ccc2c(N)c(C(=O)N[C@H]3CCc4nc(N5C[C@@H](N)[C@H](C(F)(F)F)C5)ccc4C3)sc2n1 [Example 364, 3-amino-N-[(6S)-2-[(3S,4R)-3-amino-4-(trifluoromethyl)pyrrolidin-1-yl]-5,6,7,8-tetrahydroquinolin-6-yl]-6-methylthieno[2,3-b]pyridine-2-carboxamide] | > 2000
Cc1ccc2c(N)c(C(=O)N[C@H]3CCc4nc(N5CCN[C@@H](C(F)F)C5)ccc4C3)sc2n1 [Example 375, 3-amino-N-[(6S)-2-[(3R)-3-(difluoromethyl)piperazin-1-yl]-5,6,7,8-tetrahydroquinolin-6-yl]-6-methylthieno[2,3-b]pyridine-2-carboxamide] | > 2000
Cc1ccc2c(N)c(C(=O)N[C@H]3CCc4nc(N5CC[C@@]6(C5)OCC[C@@H]6N)ccc4C3)sc2n1 [Example 407, 3-amino-N-[(6S)-2-[(4S,5S)-4-amino-1-oxa-7-azaspiro[4.4]nonan-7-yl]-5,6,7,8-tetrahydroquinolin-6-yl]-6-methylthieno[2,3-b]pyridine-2-carboxamide] | > 2000
CCn1ccc2cc(C(=O)N[C@H]3CCc4nc(N5C[C@H](C(F)F)[C@@H](N)C5)ccc4C3)cnc21 [Example 370, N-[(6S)-2-[(3R,4S)-3-amino-4-(difluoromethyl)pyrrolidin-1-yl]-5,6,7,8-tetrahydroquinolin-6-yl]-1-ethyl-1H-pyrrolo[2,3-b]pyridine-5-carboxamide] | 200 to 2000
Cc1ccc2c(N)c(C(=O)N[C@@H]3CCc4nc(N5C[C@H](C(F)F)[C@@H](N)C5)ncc4C3)sc2n1 [Example 383, 3-amino-N-[(6R)-2-[(3R,4S)-3-amino-4-(difluoromethyl)pyrrolidin-1-yl]-5,6,7,8-tetrahydroquinazolin-6-yl]-6-methylthieno[2,3-b]pyridine-2-carboxamide] | > 2000
Cc1cnc2c(N)c(C(=O)N[C@H]3CCc4cc(N5CC(C(=O)O)C5)ccc4C3)sc2n1 [Example 6-4, (S)-1-(6-(7-amino-3-methylthieno[2,3-b]pyrazine-6-carboxamido)-5,6,7,8-tetrahydronaphthalen-2-yl)azetidine-3-carboxylic acid] | 200 to 2000
Cc1ccc2c(N)c(C(=O)N[C@H]3CCc4nc(N5C[C@@H]6COC[C@]6(N)C5)ccc4C3)sc2n1 [Example 394, N-[(6S)-2-[(3aR,6aS)-3a-amino-hexahydro-1H-furo[3,4-c]pyrrol-5-yl]-5,6,7,8-tetrahydroquinolin-6-yl]-3-amino-6-methylthieno[2,3-b]pyridine-2-carboxamide] | > 2000
